# Target: EGF receptor tyrosine kinase (EGFR) (Homo sapiens, UniProt P00533)
# Test: AlphaScreen P-Tyr-100 kinase assay with poly[Glu:Tyr] ([…]) substrate
# Assay type: biochemical
# Chain of EGF receptor tyrosine kinase (EGFR) (P00533 669-1210 limits assumed): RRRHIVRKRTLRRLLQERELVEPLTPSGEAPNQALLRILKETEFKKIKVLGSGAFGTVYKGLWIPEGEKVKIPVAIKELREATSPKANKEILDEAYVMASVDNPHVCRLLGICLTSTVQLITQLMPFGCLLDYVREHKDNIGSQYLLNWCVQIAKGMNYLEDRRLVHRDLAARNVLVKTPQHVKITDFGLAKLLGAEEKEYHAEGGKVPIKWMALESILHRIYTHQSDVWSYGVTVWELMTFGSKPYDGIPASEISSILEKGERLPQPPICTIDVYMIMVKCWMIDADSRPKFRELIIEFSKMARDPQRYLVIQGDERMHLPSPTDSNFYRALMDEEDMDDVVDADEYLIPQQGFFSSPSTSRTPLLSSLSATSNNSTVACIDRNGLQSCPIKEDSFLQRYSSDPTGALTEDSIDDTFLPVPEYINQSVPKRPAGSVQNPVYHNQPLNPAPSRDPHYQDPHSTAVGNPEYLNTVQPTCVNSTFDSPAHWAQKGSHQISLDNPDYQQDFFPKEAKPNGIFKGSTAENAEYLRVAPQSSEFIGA
row,IC50,Structure (SMILES)
1,3.84 µM,O=C1C(CO)=C[C@@H](O)[C@H]2O[C@@H]12 [(+)-epoxydon]
2,16.7 µM,"O=C(O)Cc1ccc(O)c(O)c1 [3,4-dihydroxyphenyl acetic acid]"

# Reference: publication PMC3673896, “3,4-dihydroxyphenyl acetic acid and (+)-epoxydon isolated from marine algae-derived microorganisms induce down regulation of epidermal growth factor activated mitogenic signaling cascade in Hela cells” (Cancer Cell International, 2013)
